Laboratory results from US20260001928A1 (CORTERIA PHARMACEUTICALS, priority 2022, published 2026).
*1 amine or outer side, *2 acyl side, *3 side chain or, on linkers, in order; H or OH if unused. Where a SMILES comes first, the peptide text is derived from it. Side-chain parts run from the residue outwards. [ ]: non-standard residue; d: D form. The star is where a group is joined. C20 diacid = O=C(O)CCCCCCCCCCCCCCCCCCC(=O)*; C18 diacid = O=C(O)CCCCCCCCCCCCCCCCC(=O)*; C16 diacid = O=C(O)CCCCCCCCCCCCCCC(=O)*; γGlu = O=C(O)[C@H](CCC(=O)[*:2])N[*:1]; αMeL = CC(C)C[C@](C)(N)C(=O)O; AEEA = NCCOCCOCC(=O)O; Aib = CC(C)(N)C(=O)O; Propionyl = CCC(=O)*; Butyryl = CCCC(=O)*

Experiments:
human CRF2a receptor = molecular target: T1, human CRF2a receptor (Homo sapiens, UniProt Q13324); experiment: Activity at human CRF2a receptor, cAMP functional assay in TeloHEAC cells; assay type: cell-based; conditions: TeloHEAC cells stably expressing human CRF2a receptor, relative to urocortin 2 (100 nM = 100%)
T1 construct: expressed in transfected cells; host or cells: TeloHEAC cells
T1 sequence (Q13324 1-411): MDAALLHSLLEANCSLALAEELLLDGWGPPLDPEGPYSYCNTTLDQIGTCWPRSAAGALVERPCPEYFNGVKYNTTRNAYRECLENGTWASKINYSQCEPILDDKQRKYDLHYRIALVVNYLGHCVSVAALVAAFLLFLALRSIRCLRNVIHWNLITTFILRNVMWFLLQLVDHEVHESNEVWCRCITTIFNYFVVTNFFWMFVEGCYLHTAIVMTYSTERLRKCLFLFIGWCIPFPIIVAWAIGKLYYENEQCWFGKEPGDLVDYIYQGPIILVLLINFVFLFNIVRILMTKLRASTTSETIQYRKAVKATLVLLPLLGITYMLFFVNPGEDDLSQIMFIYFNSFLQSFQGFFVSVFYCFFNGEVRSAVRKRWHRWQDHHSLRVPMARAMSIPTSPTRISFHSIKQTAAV
Procedure, shortened: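 TeloHEAC cells stably expressing human CRF2a (10000 cells/well, suspended in HBSS/20 mM HEPES with 2 mM IBMX) were exposed to compounds for 30 min at 37 °C. cAMP was read as the 665/620 nm fluorescence ratio after 1 h at room temperature. EC50 was derived relative to 100 nM urocortin 2, set as 100%.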

CFR1R receptor = molecular target: T2, CFR1R receptor (Homo sapiens, UniProt P34998); experiment: Activity at anti-target CFR1R receptor, cAMP assay in CRF1R-overexpression CHO-K1 cells; assay type: cell-based; conditions: 100% = Sauvagine at 100 nM; for EC50: cAMP
T2 construct: host or cells: CHO-K1 (clone 2)
T2 sequence (P34998 24-415): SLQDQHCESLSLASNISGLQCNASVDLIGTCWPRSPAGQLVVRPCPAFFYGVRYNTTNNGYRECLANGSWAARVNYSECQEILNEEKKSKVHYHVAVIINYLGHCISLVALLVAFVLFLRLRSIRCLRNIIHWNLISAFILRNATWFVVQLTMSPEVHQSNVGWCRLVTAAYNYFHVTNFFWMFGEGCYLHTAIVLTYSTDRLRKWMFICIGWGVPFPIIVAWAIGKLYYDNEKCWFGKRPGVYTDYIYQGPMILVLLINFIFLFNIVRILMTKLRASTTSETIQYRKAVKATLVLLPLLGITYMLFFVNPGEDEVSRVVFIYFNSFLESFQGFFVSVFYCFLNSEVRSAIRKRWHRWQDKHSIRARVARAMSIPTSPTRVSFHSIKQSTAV
Procedure, shortened: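 Grow clone 2 to near confluence at 37° C. under 5% CO2 in F12 (Hams) with 10% FBS and G418, harvest, and freeze in 10% DMSO. Thaw and plate at 4000 cells/well. Then proceed per the TeloHAEC method, normalising to Sauvagine 100 nM as maximum.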

Row | SMILES | EC50 (human CRF2a receptor) [nM] | Emax (% I) (CFR1R receptor) | EC50 (CFR1R receptor) [nM]
1 | CCCC(=O)N[C@H](C(=O)N[C@@H](CC(C)C)C(=O)N[C@@H](CO)C(=O)N[C@@H](CC(C)C)C(=O)N[C@@H](CC(=O)O)C(=O)N[C@@H](C(=O)N1CCC[C@H]1C(=O)N[C@H](C(=O)N[C@@H](CCCCN)C(=O)N[C@@H](CC(C)C)C(=O)N[C@@H](CCCCNC(=O)CC[C@H](NC(=O)CCCCCCCCCCCCCCC(=O)O)C(=O)O)C(=O)N[C@@H](CCCCN)C(=O)N[C@H](C(=O)N[C@@H](CC(C)C)C(=O)N[C@@H](CC(C)C)C(=O)N[C@@H](CCC(=O)O)C(=O)N[C@@H](CCC(N)=O)C(=O)N[C@@H](CCC(=O)O)C(=O)N[C@@H](CCCCN)C(=O)N[C@@H](CCC(N)=O)C(=O)N[C@@H](CCCCN)C(=O)N[C@@H](CCCCN)C(=O)N[C@@H](CCC(N)=O)C(=O)N[C@@H](CCCNC(=N)N)C(=O)N[C@@H](CCC(=O)O)C(=O)N[C@@H](CCC(N)=O)C(=O)N[C@@H](C)C(=O)N[C@@H](CCC(=O)O)C(=O)N[C@H](C(=O)N[C@@H](CC(N)=O)C(=O)N[C@@H](CCCCN)C(=O)N[C@@H](CCC(N)=O)C(=O)N[C@H](C(=O)N[C@@H](CC(C)C)C(=O)N[C@@H](C)C(=O)N[C@@H](CCC(N)=O)C(=O)N[C@H](C(N)=O)C(C)C)[C@@H](C)CC)[C@@H](C)O)[C@@H](C)CC)[C@@H](C)CC)C(C)C)C(C)C [compound 36] (Butyryl-VLSLD[dV]PIKLK([γGlu-C16 diacid])KILLEQEKQKKQREQAETNKQILAQV-NH2) | 0.14 | 22 | > 250
2 | CC[C@H](C)[C@H](NC(C)=O)C(=O)N[C@H](C(=O)N[C@@H](CC(C)C)C(=O)N[C@@H](CO)C(=O)N[C@@H](CC(C)C)C(=O)N[C@@H](CC(=O)O)C(=O)N[C@@H](C(=O)N1CCC[C@H]1C(=O)N[C@H](C(=O)N[C@@H](CCCCN)C(=O)N[C@@H](CC(C)C)C(=O)N[C@@H](CCCCNC(=O)COCCOCCNC(=O)COCCOCCNC(=O)CC[C@H](NC(=O)CCCCCCCCCCCCCCCCCCC(=O)O)C(=O)O)C(=O)N[C@@H](CCCCN)C(=O)N[C@H](C(=O)N[C@@H](CC(C)C)C(=O)N[C@@H](CC(C)C)C(=O)N[C@@H](CCC(=O)O)C(=O)N[C@@H](CCC(N)=O)C(=O)N[C@@H](CCC(=O)O)C(=O)N[C@@H](CCCCN)C(=O)N[C@@H](CCC(N)=O)C(=O)N[C@@H](CCCCN)C(=O)N[C@@H](C)C(=O)N[C@@H](CCC(N)=O)C(=O)N[C@@H](CCCNC(=N)N)C(=O)N[C@@H](CCC(=O)O)C(=O)N[C@@H](CCC(N)=O)C(=O)N[C@@H](C)C(=O)N[C@@H](CCC(=O)O)C(=O)N[C@H](C(=O)N[C@@H](CC(N)=O)C(=O)NC(C)(C)C(=O)N[C@@H](CCC(N)=O)C(=O)N[C@H](C(=O)N[C@@H](CC(C)C)C(=O)N[C@@H](C)C(=O)N[C@@H](CCC(N)=O)C(=O)N[C@H](C(N)=O)C(C)C)[C@@H](C)CC)[C@@H](C)O)[C@@H](C)CC)[C@@H](C)CC)C(C)C)C(C)C [compound 240] (Ac-IVLSLD[dV]PIKLK([AEEA-AEEA-γGlu-C20 diacid])KILLEQEKQKAQREQAETN[Aib]QILAQV-NH2) | 0.22 | 4 | > 250
3 | CC[C@H](C)[C@H](NC(C)=O)C(=O)N[C@H](C(=O)N[C@@H](CC(C)C)C(=O)N[C@@H](CO)C(=O)N[C@@H](CC(C)C)C(=O)N[C@@H](CC(=O)O)C(=O)N[C@@H](C(=O)N1CCC[C@H]1C(=O)N[C@H](C(=O)N[C@@H](CCCCN)C(=O)N[C@@](C)(CC(C)C)C(=O)N[C@@H](CCCCNC(=O)CC[C@H](NC(=O)CCCCCCCCCCCCCCC(=O)O)C(=O)O)C(=O)N[C@@H](CCCCN)C(=O)N[C@H](C(=O)N[C@@H](CC(C)C)C(=O)N[C@@H](CC(C)C)C(=O)N[C@@H](CCC(=O)O)C(=O)N[C@@H](CCC(N)=O)C(=O)N[C@@H](CCC(=O)O)C(=O)N[C@@H](CCCCN)C(=O)N[C@@H](CCC(N)=O)C(=O)N[C@@H](CCCCN)C(=O)N[C@@H](CCCCN)C(=O)N[C@@H](CCC(N)=O)C(=O)N[C@@H](CCCNC(=N)N)C(=O)N[C@@H](CCC(=O)O)C(=O)N[C@@H](CCC(N)=O)C(=O)N[C@@H](C)C(=O)N[C@@H](CCC(=O)O)C(=O)N[C@H](C(=O)N[C@@H](CC(=O)O)C(=O)N[C@@H](CCCCN)C(=O)N[C@@H](CCC(N)=O)C(=O)N[C@H](C(=O)N[C@@H](CC(C)C)C(=O)N[C@@H](C)C(=O)N[C@@H](CCC(N)=O)C(=O)N[C@H](C(N)=O)C(C)C)[C@@H](C)CC)[C@@H](C)O)[C@@H](C)CC)[C@@H](C)CC)C(C)C)C(C)C [compound 53] (Ac-IVLSLD[dV]PIK[αMeL]K([γGlu-C16 diacid])KILLEQEKQKKQREQAETDKQILAQV-NH2) | 8.05 | 5 | > 250
4 | CC[C@H](C)[C@H](NC(C)=O)C(=O)N[C@H](C(=O)N[C@@H](CC(C)C)C(=O)N[C@@H](CO)C(=O)N[C@@H](CC(C)C)C(=O)N[C@@H](CC(=O)O)C(=O)N[C@@H](C(=O)N1CCC[C@H]1C(=O)N[C@H](C(=O)N[C@@H](CCCCN)C(=O)N[C@@](C)(CC(C)C)C(=O)N[C@@H](CCCCNC(=O)COCCOCCNC(=O)COCCOCCNC(=O)CC[C@H](NC(=O)CCCCCCCCCCCCCCCCC(=O)O)C(=O)O)C(=O)N[C@@H](CCCCN)C(=O)N[C@H](C(=O)N[C@@H](CC(C)C)C(=O)N[C@@H](CC(C)C)C(=O)N[C@@H](CCC(=O)O)C(=O)N[C@@H](CCC(N)=O)C(=O)N[C@@H](CCC(=O)O)C(=O)N[C@@H](CCCCN)C(=O)N[C@@H](CCC(N)=O)C(=O)N[C@@H](CCCCN)C(=O)N[C@@H](CCCCN)C(=O)N[C@@H](CCC(N)=O)C(=O)N[C@@H](CCCNC(=N)N)C(=O)N[C@@H](CCC(=O)O)C(=O)N[C@@H](CCC(N)=O)C(=O)N[C@@H](C)C(=O)N[C@@H](CCC(=O)O)C(=O)N[C@H](C(=O)N[C@@H](CC(N)=O)C(=O)N[C@@H](C)C(=O)N[C@@H](CCC(N)=O)C(=O)N[C@H](C(=O)N[C@@H](CC(C)C)C(=O)N[C@@H](C)C(=O)N[C@@H](CCC(N)=O)C(=O)N[C@H](C(N)=O)C(C)C)[C@@H](C)CC)[C@@H](C)O)[C@@H](C)CC)[C@@H](C)CC)C(C)C)C(C)C [compound 112] (Ac-IVLSLD[dV]PIK[αMeL]K([AEEA-AEEA-γGlu-C18 diacid])KILLEQEKQKKQREQAETNAQILAQV-NH2) | 0.28 | 3 | > 250
5 | CCC(=O)N[C@H](C(=O)N[C@@H](CC(C)C)C(=O)N[C@@H](CO)C(=O)N[C@@H](CC(C)C)C(=O)N[C@@H](CC(=O)O)C(=O)N[C@H](C(=O)N1CCC[C@H]1C(=O)N[C@H](C(=O)N[C@@H](CCCCN)C(=O)N[C@@H](CC(C)C)C(=O)N[C@@H](CCCCNC(=O)COCCOCCNC(=O)COCCOCCNC(=O)CC[C@H](NC(=O)CCCCCCCCCCCCCCCCC(=O)O)C(=O)O)C(=O)N[C@@H](CCCCN)C(=O)N[C@H](C(=O)N[C@@H](CC(C)C)C(=O)N[C@@H](CC(C)C)C(=O)N[C@@H](CCC(=O)O)C(=O)N[C@@H](CCC(N)=O)C(=O)N[C@@H](CCC(=O)O)C(=O)N[C@@H](CCCCN)C(=O)N[C@@H](CCC(N)=O)C(=O)N[C@@H](CCCCN)C(=O)N[C@@H](CCCCN)C(=O)N[C@@H](CCC(N)=O)C(=O)N[C@@H](CCCNC(=N)N)C(=O)N[C@@H](CCC(=O)O)C(=O)N[C@@H](CCC(N)=O)C(=O)N[C@@H](C)C(=O)N[C@@H](CCC(=O)O)C(=O)N[C@H](C(=O)N[C@@H](CC(N)=O)C(=O)N[C@@H](CCCCN)C(=O)N[C@@H](CCC(N)=O)C(=O)N[C@H](C(=O)N[C@@H](CC(C)C)C(=O)N[C@@H](C)C(=O)N[C@@H](CCC(N)=O)C(=O)N[C@H](C(N)=O)C(C)C)[C@@H](C)CC)[C@@H](C)O)[C@@H](C)CC)[C@@H](C)CC)C(C)C)C(C)C [compound 94] (Propionyl-VLSLDVPIKLK([AEEA-AEEA-γGlu-C18 diacid])KILLEQEKQKKQREQAETNKQILAQV-NH2) | 1.48 | 0 | > 250
